{"source": "patent US7723328B2", "about": "“Methods of facilitating cell survival using neurotrophin mimetics” (The University of North Carolina at Chapel Hill, priority 2005, dated 2010)", "key": {"hippocampal neurons": {"system": "hippocampal neurons", "experiment": "Hippocampal neuron survival with signaling pathway inhibitors", "type": "cell-based, mouse", "conditions": "PD98059 50 μM; BDNF/NGF 25 ng/ml, compounds 5 nM; 48 h", "description": "(§1) Hippocampal neurons were prepared from E16-17 mouse embryos as previously described (Yang. T. et al. (2003) J Neurosci 23, 3353-3363). […] For studies employing p75^NTR+/+ and p75^NTR−/− neurons, mice carrying a mutation in exon 3 of the p75^NTR gene (Lee, K. F. et al. (1992) Cell 69, 737-749) were bred onto a B6 congenic background (>10 B6 backcrosses).\n(§2) After 48 hours in culture, cell survival was assessed as previously described (Longo, F. M., Manthorpe. M., Xie. Y. M., Varon, S. (1997) J Neurosci Res 48, 1-17) using a combination of standard morphological criteria along with visual determination of whether a given cell converted MTT to its blue formazan product. The number of surviving neurons was determined by counting the total number of cells in each well that were both morphologically intact and filed with blue product (Longo F. M., Manthorpe. M., Xie, Y. M., Varon, S. (1997) J Neurosci Res 48, 1-17). For each neurotrophin or compound concentration, duplicate wells were counted and the resulting values averaged. Activity of each compound was confirmed by blinded counts. Counts were normalized to survival achieved with 25 ng/ml BDNF or to baseline survival. Fitting of dose-responsive curves was performed with Sigmaplot obtained from SYSTAT Software Inc. (Richmond, Calif., United States of America).\n(§3) For all studies applying signaling inhibitors, p75^NTR antibodies or p75^NTR−/− neurons, survival was assessed at 48 hours."}, "AKT": {"system": "AKT", "experiment": "AKT activation western blot in hippocampal cultures", "type": "cell-based, mouse", "conditions": "p75NTR−/− neurons, versus culture medium alone", "description": "(§4) For assays of Trk, AKT, NFκB, and ERK activation, hippocampal neurons derived from E16-17 mice were cultured in poly-L-lysine coated six-well plates (Corning, Inc., Corning, N.Y., United States of America) in DMEM containing 10% FBS, followed by incubation in serum-free DMEM for 2 hours before addition of neurotrophins or compounds. At the indicated time points, neurons were harvested in lysis buffer consisting of: 20 mM Tris, pH 8.0, 137 mM NaCl, 1% Igepal CA-630, 10% glycerol, 1 mM PMSF, 10 μg/ml aprotinin, 1 μg/ml leupeptin, 500 μM orthovanadate (Zhou, J., Valletta, J. S., Grimes, M. L., Mobley, W. C. (1995) J Neurochem 65, 1146-1156).\n(§5) Lysates were centrifuged, the supernatant collected, and protein concentrations determined using the BCA Protein Assay Reagent obtained from Pierce (Rockford, Ill., United States of America). Western blots were performed as described previously (Yang, T. et al. (2003) J Neurosci 23, 3353-3363). Western blot signals were detected using the ECL Chemiluminescence System obtained by Amersham (Piscataway, N.J., United States of America) (Yang, T. et al. (2003) J Neurosci 23, 3353-3363)."}, "p75^NTR-Fc [1]": {"molecular_target": "T1, p75^NTR-Fc (Homo sapiens, UniProt P08138)", "T1 construct": "purchased R&D Systems", "T1 sequence (P08138 with tags, fused parts or gaps limits assumed)": "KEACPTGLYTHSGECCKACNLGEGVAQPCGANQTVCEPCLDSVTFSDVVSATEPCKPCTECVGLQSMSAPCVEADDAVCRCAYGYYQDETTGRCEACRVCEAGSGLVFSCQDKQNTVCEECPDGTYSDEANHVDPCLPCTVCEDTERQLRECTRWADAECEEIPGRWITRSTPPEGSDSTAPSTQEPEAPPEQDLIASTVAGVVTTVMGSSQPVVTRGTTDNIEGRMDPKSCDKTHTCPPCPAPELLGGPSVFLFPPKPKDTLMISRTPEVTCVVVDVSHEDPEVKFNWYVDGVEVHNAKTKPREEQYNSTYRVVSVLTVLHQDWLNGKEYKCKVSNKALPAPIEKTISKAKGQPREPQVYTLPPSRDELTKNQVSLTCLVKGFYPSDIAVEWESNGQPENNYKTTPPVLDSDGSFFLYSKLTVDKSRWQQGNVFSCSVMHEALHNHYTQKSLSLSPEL", "experiment": "NGF/p75NTR-Fc binding by NGF ELISA, Gaddum/Schild fit", "conditions": "read-out: KD for NGF; in the absence of compounds", "description": "Briefly, 96-well plates were incubated with 0.1 pmol (at 1 nM) of p75/Fc or TrkA/Fc recombinant protein obtained from R&D System (Minneapolis, Minn., United States of America) overnight at 4° C. followed by incubation with blocking buffer for 1 hour at room temperature. […] Plates were then washed five times with Tris-buffered saline (TBS) containing 0.05% Tween-20 and incubated with anti-NGF rabbit polyclonal antibody overnight at 4° C. Following five washes with TBS, wells were incubated for 2.5 hours at room temperature with anti-rabbit IgG HRP conjugate and washed five times. 3,3′,5,5′-tetramethyl-benzidine substrate was added and the optical density measured at 450 nm.\nA regression analysis of NGF-p75^NTR binding in the presence of the p75-binding compounds was performed. The data was fit using the Nonlinear Regression module of Sigmaplot, to a modification of the Gaddum/Schild equation (adapted from Motulsky, H. J., and Christopoulos. A. (2003) A Practical Guide to Curve Fitting, 2nd edn. (San Diego, Calif., GraphPad Software, Inc.): […]"}, "E17 hippocampal neurons": {"system": "E17 hippocampal neurons", "experiment": "Aβ-induced death of hippocampal neurons", "type": "cell-based", "conditions": "Aβ1-42 10 μM; NGF at 100 pg/ml", "description": "Using previously well established protocols, Aβ was preincubated for 3 days in water to allow formation of oligomers. E17 hippocampal neurons were incubated for 5 days to allow for maturation prior to addition of Aβ with test compounds."}, "p75^NTR−/− cells": {"system": "p75^NTR−/− cells", "experiment": "Survival of p75NTR+/+ versus p75NTR-/- hippocampal neurons", "type": "cell-based, mouse", "conditions": "neurotrophins 1.8 nM, compounds 5 nM", "description": "as §1, §2, §3"}, "p75^NTR-Fc [2]": {"molecular_target": "T1, p75^NTR-Fc", "conditions": "read-out: KD for NGF, previous reports; Nykjaer et al. 2004; cited from earlier work"}, "ERK42": {"system": "ERK42", "experiment": "ERK42 activation western blot in hippocampal cultures", "type": "cell-based, mouse", "conditions": "compounds 20 nM, BDNF/NGF 50 ng/ml; 10 and 30 min", "description": "as §4, §5"}, "TrkB": {"molecular_target": "T2, TrkB (Mus musculus, UniProt P15209)", "T2 construct": "endogenous in cells; host or cells: primary hippocampal neurons from E16-17 mouse embryos", "T2 sequence (P15209 32-821)": "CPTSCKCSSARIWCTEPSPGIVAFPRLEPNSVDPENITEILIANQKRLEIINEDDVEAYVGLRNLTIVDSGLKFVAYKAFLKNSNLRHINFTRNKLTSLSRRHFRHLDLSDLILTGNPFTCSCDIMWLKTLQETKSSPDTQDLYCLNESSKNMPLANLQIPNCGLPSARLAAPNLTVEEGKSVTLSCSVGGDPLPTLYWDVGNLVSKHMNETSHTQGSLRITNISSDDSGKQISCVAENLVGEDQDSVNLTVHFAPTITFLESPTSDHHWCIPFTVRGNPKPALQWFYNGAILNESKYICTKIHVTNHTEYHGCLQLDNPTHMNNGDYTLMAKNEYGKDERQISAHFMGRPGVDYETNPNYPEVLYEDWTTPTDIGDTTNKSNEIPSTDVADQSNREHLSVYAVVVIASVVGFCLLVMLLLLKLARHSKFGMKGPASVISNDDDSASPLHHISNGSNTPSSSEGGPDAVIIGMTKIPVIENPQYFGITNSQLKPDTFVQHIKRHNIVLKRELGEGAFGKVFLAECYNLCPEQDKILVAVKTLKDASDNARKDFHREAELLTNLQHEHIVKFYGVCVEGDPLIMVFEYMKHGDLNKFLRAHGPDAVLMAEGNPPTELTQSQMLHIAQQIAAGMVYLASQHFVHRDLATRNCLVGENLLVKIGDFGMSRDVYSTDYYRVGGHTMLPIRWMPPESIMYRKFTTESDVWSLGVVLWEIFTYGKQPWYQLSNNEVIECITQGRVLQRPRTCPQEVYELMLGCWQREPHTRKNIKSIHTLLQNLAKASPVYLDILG", "experiment": "Trk Y490 phosphorylation western blot in hippocampal neuron cultures", "type": "cell-based", "conditions": "10 or 30 minutes", "description": "as §4, §5"}}, "note": "pKd: −log10 of the molar value. Entries after “also recorded” stand apart in the source; their conditions may differ. Where two headings read alike, the source gives them in different places."}
{"substance": "NGF: Recombinant human NGF obtained from Invitrogen", "values": [{"measurement": "effect of PD98059 (ERK inhibitor) on survival promoted by the substance", "setting": "hippocampal neurons", "value": "small but significant effect; also recorded: small effects"}, {"measurement": "AKT activation in p75NTR−/− cells", "setting": "AKT", "value": "completely absent"}, {"measurement": "pKd", "setting": "p75^NTR-Fc [1]", "value": "9.05 to 9.10"}, {"measurement": "protection against Aβ1-42-induced death", "setting": "E17 hippocampal neurons", "value": "fails to protect; also recorded: did not protect"}, {"measurement": "effect of p75NTR-deficiency on promotion of neuron survival by the substance", "setting": "p75^NTR−/− cells", "value": "lack of response; also recorded: completely inhibits"}, {"measurement": "pKd", "setting": "p75^NTR-Fc [2]", "value": "~9.00"}, {"measurement": "ERK42 activation", "setting": "ERK42", "value": "greater with BDNF and NGF treatment than with the p75-binding compounds"}, {"measurement": "TrkB activation (Trk Y490 phosphorylation)", "setting": "TrkB", "value": "no activation was detected"}]}
